“Also recorded” adds a separate entry of the source. Read-outs that look alike come from different tables or passages of the source.
How the values were obtained:
[1] = tested on: CFU-MK (Colony Forming Unit-Megakaryocyte) progenitors from CD34+ cells; test: Colony assay in fibrin clot, CFU-MK; format: cell-based, human; conditions: Homo sapiens
Protocol: CD34^+cells were obtained from leukapheresis samples after mobilization of donors after informed consent in agreement with our Institute Ethic Committee (Assistance Publique des Hôpitaux de Paris) and in accordance with the Declaration of Helsinki. CD34^+cells were isolated by a positive selection using an immunomagnetic cell sorting system (AutoMacs; Miltenyi Biotec, Bergisch Gladbach, Germany). 500 to 1000 normal CD34^+cells were plated either in 1% methylcellulose assay (StemCells technologies, Vancouver, Canada) to quantify erythroid (BFU-E) and granulo-monocytic (CFU-GM) progenitors or in serum-free fibrin clot assay for quantification of MK progenitors (CFU-MK) in the absence or presence of various concentration of SAR405838 or MI-219. Cultures in methylcellulose were stimulated by addition of human recombinant growth factors: G-CSF (20 ng/mL), IL-3 (10 ng/mL) SCF (25 ng/mL, Biovitrum AB, Stockholm, Sweden), IL-6 (10 ng/mL), FLT3 (10 ng/mL) and human EPO (1 U/mL). Cultures in fibrin clot were stimulated with 10 ng/mL TPO (Kirin Brewery, Tokyo, Japan) and 25 ng/mL SCF. BFU-E and CFU-GM colonies were enumerated at day 14 of culture. […]

Day 8-erythroblasts = test: Viable erythroblasts counted by Trypan blue exclusion; format: cell-based; conditions: Homo sapiens, day 8-erythroblasts treated 48 hours, read-out: IC50, decrease in viable cells
Protocol: Day 8-erythroblasts were treated with various doses of SAR405838 or MI-219 for 48 hours. The viable cells were counted by Trypan blue exclusion and the apoptotic cells were quantified by flow cytometry analysis using annexin V/ propidium iodide labeling.
B. Day 8-erythroblasts were treated with various doses of MI-219 or SAR405838 for 48 hours and counted by trypan blue exclusion. C. Day 8-erythroblasts were treated with various doses of MI-219 or SAR405838 for 48 hours and apoptotic cells were analyzed by flow cytometry using Annexin V assay. The results represent the mean of 3 independent experiments. * represents statistical significance (*P<0.05; **P<0.01; ***P<0.001).

[2] = tested on: CD34+ progenitors cultured with SCF and TPO; test: Viable CD34+ progenitors at early stage of megakaryocytic differentiation, Trypan blue exclusion; format: cell-based; conditions: Homo sapiens, read-out: IC50, decrease in number of viable cells
Protocol: We explored the effect of p53 stabilization on the viability of CD34^+progenitors at early stages of megakaryocytic differentiation. CD34^+ progenitors were cultured for one day in serum-free medium supplemented with SCF and TPO and treated with SAR405838 or MI-219. After a 48 or 72 hour incubation, cells were counted by Trypan blue exclusion and apoptotic cells were quantified by flow cytometry using Annexin V / Propidium iodide labeling.
A. Cells were counted by Trypan blue exclusion.

[3] = tested on: Day 6 megakaryoblasts (ploidization); test: MK ploidy by flow cytometry (CD41/CD42/vital Hoechst staining); format: cell-based, human; conditions: day 6 megakaryoblasts treated 72 hours, analysed day 9; SAR405838 at 1 μM; untreated control 4.4 N
Protocol: First, we investigated if MDM2 inhibitors affect MK ploidization. SAR405838 induced a significant reduction in the mean ploidy (3.0 N at the dose of 1 μM versus 4.4 N for untreated control or for MI-219 treatment) (Supplementary Figure S1). page 1: P53 activation inhibits all types of hematopoietic progenitors and all stages of megakaryopoiesis SUPPLEMENTARY FIGURE Supplementary Figure S1: Effect of SAR405838 on polyploidization. Day 6 megakaryoblasts were treated for 72 hours with various doses of MI-219 or SAR405838. At day 9, ploidy was analyzed by flow cytometry using a CD41/CD42/vital Hoechst staining. N represents the mean ploidy. As shown, SAR405838 induced a significant reduction in the mean ploidy (3.0N at the dose of 1μM versus 4.4N for control or for MI-219 treatment). The Figure illustrates a representative experiment in triplicate. Two other experiments in triplicate gave similar results. […]

[4] = tested on: day 10-MKs (proplatelet formation); test: Proplatelet formation assay; format: cell-based, human
Protocol: Then, we explored the effects of p53 stabilization on PPT formation (the step before platelet release). […] To confirm that this was due to p53 stabilization, we knocked-down p53 with 2 shRNA showing a decrease in P53 RNA and protein levels (Figure 7B/7C) and reduced expression of p53 targets (Figure 7D).
Figure 7 Effects of p53 stabilization on PPT formation A. Percentage of proplatelet-forming day 10-MKs after incubation with 0.5 or 1 μM of SAR405838 or MI-219. […] A total of 200 cells per well were counted during 4 days. Error bars in histograms represent the SD of one representative experiment performed in triplicate wells. Similar results were obtained in 3 repeated experiments. * represents statistical significance (**P<0.01). […] D. p53, MDM2, BCL-XL, BAX and p21 protein levels were analyzed in GFP^+/CD41^+ sorted cells by Western blot (at days 10 and 13 of culture). β-actin was used as loading control. […] A total of 200 cells per well were counted during 4 days (from day 11 to day 14). […]
CD41^+GFP^+ MKs were sorted at day 8 of culture and plated in 96-well plates at a concentration of 2,000 cells/well in serum-free medium containing TPO, and quantification of PPT bearing MKs was performed as previously described. […] A total of 200 cells per well were counted during 4 days. […]

[5] = design: method as in PMID 25145672; conditions: cited from earlier work
[6] = tested on: p53 in day 8-erythroblasts; test: p53 expression by western-blot in day 8-erythroblasts; conditions: Homo sapiens, 192 h, read-out: p53 fold induction (western-blot)
Protocol: For that purpose, CD34^+ progenitors were cultured in serum-free medium with SCF and EPO for 8 days. SAR405838- or MI-219-treated erythroblasts were analyzed for p53 expression by western-blot. […] Day 8-erythroblasts were treated with various doses of SAR405838 or MI-219 for 48 hours.
Figure 4 Effect of SAR405838 on erythroid differentiation A. Day 8-erythroblasts treated with MI-219 or SAR405838 were analyzed for p53 expression by western-blot. β-actin was used as loading control.
Expression levels were performed by western-blot analysis using mouse anti-p53 and anti-β-actin (Sigma-Aldrich), anti-bax (Oncogene), anti-p21 (Beckton Dickenson), anti-Mdm2 (BD Pharmingen), anti-BCL-XL, and rat anti-HSC70 (Stressgen). Proteins were quantified by Image J software.

In the case of `CC(C)(C)C[C@@H]1N[C@@H](C(=O)N[C@H]2CC[C@H](O)CC2)[C@H](c2cccc(Cl)c2F)[C@]12C(=O)Nc1cc(Cl)ccc12` [SAR405838], the IC50 ([1]; 72 h, CD34+ cells treated 3 days, washed, then plated in colony assay, read-out: IC50, reduction of CFU-MK progenitors) is reported as about 2 µM, the IC50 ([1]; CD34+ cells seeded in fibrin clot in the presence of compound, compared to untreated control, read-out: dose inducing a 50% reduction of CFU-MK numbers) is reported as 0.5 to 1 µM and the IC50 (Day 8-erythroblasts) is reported as 0.5 µM. For the same compound, the IC50 ([2]; 48 hours of treatment) was about 1.5 µM, the IC50 ([2]; 72 hours of treatment) was about 1.5 µM and the mean ploidy [3] was 3.0 N. The “PPT (proplatelet) formation” value ([4]; 0.5 μM) was “inhibited; also recorded: drastically decreased”, the “PPT (proplatelet) formation” value ([4]; 1 μM) was “completely abrogated; also recorded: completely abolished” and the hematopoietic toxicity [5] was “reversible thrombocytopenia”. It also gave a fold induction at 2 µM [6] of 4.8 and a fold induction at 4 µM [6] of 4.5.

Reference: article PMC5077990, “P53 activation inhibits all types of hematopoietic progenitors and all stages of megakaryopoiesis” (Oncotarget, 2016)
